{
  "source": "paper PMC8207694",
  "about": "“Nucleoside transporter-guided cytarabine-conjugated liposomes for intracellular methotrexate delivery and cooperative choriocarcinoma therapy” (Journal of Nanobiotechnology, 2021)",
  "key": {"[1]": {"target": "T1, ENT1 (Homo sapiens, UniProt Q99808)", "T1 sequence (Q99808 1-456)": "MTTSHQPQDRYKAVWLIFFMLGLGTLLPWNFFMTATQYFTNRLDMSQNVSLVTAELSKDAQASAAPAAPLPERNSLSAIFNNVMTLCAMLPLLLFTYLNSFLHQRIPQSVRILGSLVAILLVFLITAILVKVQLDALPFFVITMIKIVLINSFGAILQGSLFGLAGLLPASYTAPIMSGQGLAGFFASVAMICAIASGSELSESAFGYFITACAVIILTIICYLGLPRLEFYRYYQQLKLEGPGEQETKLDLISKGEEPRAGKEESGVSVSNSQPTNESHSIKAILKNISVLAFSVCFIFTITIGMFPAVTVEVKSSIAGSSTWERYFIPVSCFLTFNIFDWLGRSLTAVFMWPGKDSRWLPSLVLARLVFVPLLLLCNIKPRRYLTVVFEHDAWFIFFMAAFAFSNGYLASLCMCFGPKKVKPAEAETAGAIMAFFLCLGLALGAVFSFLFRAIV", "assay": "Effect of ENT1 competitive inhibitors on MTX formulation cytotoxicity (MTT)", "conditions": "then 20 μg MTX-equivalent/mL for 48 h; for effect of pre-treatment on toxicity of Cy-Lipo@MTX to JEG-3 cells: inhibitor 0.2-5.0 μM for 2 h", "method": "To investigate the effect of ENT1 on MTX formulations induced cytotoxicity, 2′-deoxycytidine and gemcitabine, as competitive inhibitors of ENT1, were cultured with adherent JEG-3 cells for 2 h. Next, the medium was removed, and the fresh medium containing MTX formulations (20 μg MTX-equivalent/mL) was added to the plate. The cells were incubated for another 48 h. MTT reagent was added as previously described, and absorbance was assessed via microplate reader."}, "[2]": {"target": "T1, ENT1", "assay": "Competitive inhibition of liposome uptake by ENT1 substrates", "assay_type": "cell-based", "parameters": "endogenous in cells; host or cells: JEG-3 (human choriocarcinoma cells)", "conditions": "pre-treatment 2 h, 0.2-5.0 μM, then liposomes 4 h", "method": "Briefly, different concentration (0.2–5.0 μM) of 2′-deoxycytidine or gemcitabine was cultured with the adherent JEG-3 cells for 2 h. Then, the medium was removed, and the fresh medium containing Dox-labeled liposomes was added to the plate. The cells were incubated for another 4 h. Subsequent steps were the same as those in uptake assay."}, "[3]": {"system": "JEG-3 cells", "assay": "Specific uptake of cytarabine into the cells (LC/MS)", "assay_type": "cell-based, human", "conditions": "Cy 5 μM, after 30 min and 1 h; compared with Pricell-0051, MCF-7, HepG2 cells; P < 0.05", "method": "JEG-3 cells, MCF-7 cells, or HepG2 cells were plated overnight in 6-well plates. Then, the adhered cells were treated with Cy (5 μM) for 30 min or 60 min. Then, cells were washed with PBS for moving the free drug in the medium. After that, the cells were lysed and treated with acetonitrile for precipitating protein. Finally, the content of Cy was detected by LC/MS (8050, SHIMADZU, Japan)."}, "[4]": {"system": "JEG-3 cells", "assay": "Effect of endocytosis inhibitors on liposome uptake", "assay_type": "cell-based, human", "conditions": "pre-treatment 30 min; chlorpromazine 50 μM, indomethacin 50 μM, colchicine 10 μM, quercetin 10 μM", "method": "Endocytosis was studied by adding JEG-3 cells to 6 well-plates and pre-treating them for 30 min with inhibitors of various endocytic pathways including the clathrin-dependent endocytosis inhibitor chlorpromazine (50 μM), the caveolin-dependent endocytosis inhibitor indomethacin (50 μM), the micropinocytosis inhibitor colchicine (10 μM), and quercetin (10 μM) as tools for inhibiting caveolae- or clathrin-independent endocytosis. Then, the medium was removed, and the fresh medium containing Dox-labeled liposomes was added to the plate. The cells were incubated for another 4 h. Subsequent steps were the same as those in uptake assay."}},
  "data": [
    {"molecule": "Nc1ccn([C@@H]2O[C@H](CO)[C@@H](O)C2(F)F)c(=O)n1", "note": "[gemcitabine]", "values": [
      {"measurement": "effect of pre-treatment on toxicity of Cy-Lipo@MTX to JEG-3 cells", "setting": "[1]", "value": "significantly reduced the toxicity of Cy-Lipo@MTX to JEG-3 cells"},
      {"measurement": "effect of pre-treatment on cytotoxicity of free MTX or Lipo@MTX in JEG-3 cells", "setting": "[1]; inhibitor for 2 h", "value": "little effect"},
      {"measurement": "effect on uptake of Dox-labeled Cy-Lipo by JEG-3 cells", "setting": "[2]", "value": "significantly influenced the uptake of Dox-labeled Cy-Lipo at concentrations of 1.0 μM and 5.0 μM"}
    ]},
    {"molecule": "Nc1ccn([C@@H]2O[C@H](CO)[C@@H](O)[C@@H]2O)c(=O)n1", "note": "[Cy, cytosine β-d-arabinofuranoside]", "values": [
      {"measurement": "amount of Cy taken up by JEG-3 cells", "setting": "[3]", "value": "significantly higher than that taken up by Pricell-0051, MCF-7, and HepG2 cells"}
    ]},
    {"molecule": "CN(C)CCCN1c2ccccc2Sc2ccc(Cl)cc21", "note": "[chlorpromazine]", "values": [
      {"measurement": "effect of endocytosis inhibitor on uptake of Dox-labeled Cy-Lipo", "setting": "[4]", "value": "next most substantial inhibition"}
    ]},
    {"molecule": "Cl.Nc1ccn([C@H]2C[C@H](O)[C@@H](CO)O2)c(=O)n1", "note": "[deoxycytidine, 2′-deoxycytidine hydrochloride]", "values": [
      {"measurement": "effect of pre-treatment on toxicity of Cy-Lipo@MTX to JEG-3 cells", "setting": "[1]", "value": "significantly reduced the toxicity of Cy-Lipo@MTX to JEG-3 cells"},
      {"measurement": "effect on uptake of Dox-labeled Cy-Lipo by JEG-3 cells", "setting": "[2]", "value": "significantly reduce the uptake of Dox-labeled Cy-Lipo by JEG-3 cells in a concentration-dependent manner"},
      {"measurement": "effect on uptake of Dox-labeled Lipo by JEG-3 cells", "setting": "[2]", "value": "less of effect"}
    ]},
    {"molecule": "COc1cc2c(c(OC)c1OC)-c1ccc(OC)c(=O)cc1[C@@H](NC(C)=O)CC2", "note": "[colchicine]", "values": [
      {"measurement": "effect of endocytosis inhibitor on uptake of Dox-labeled Cy-Lipo", "setting": "[4]", "value": "reduced effect"}
    ]},
    {"molecule": "COc1ccc2c(c1)c(CC(=O)O)c(C)n2C(=O)c1ccc(Cl)cc1", "note": "[indomethacin]", "values": [
      {"measurement": "effect of endocytosis inhibitor on uptake of Dox-labeled Cy-Lipo", "setting": "[4]", "value": "impacted the uptake of Dox-labeled Cy-Lipo to the greatest extent"}
    ]},
    {"molecule": "O=c1c(O)c(-c2ccc(O)c(O)c2)oc2cc(O)cc(O)c12", "note": "[Quercetin, quercetin]", "values": [
      {"measurement": "effect of endocytosis inhibitor on uptake of Dox-labeled Cy-Lipo", "setting": "[4]", "value": "a certain inhibitory effect"}
    ]}
  ]
}
